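Assay format: 96-well plates, 48-hour exposure. GI50 = concentration required for 50% inhibition of growth. TGI marks complete inhibition of growth.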 *1 amine or outer side, *2 acyl side, *3 side chain or, on linkers, in order; H or OH if unused. Where a SMILES comes first, the peptide text is derived from it. [ ]: non-standard residue; d: D form. The star is where a group is joined. X11 = C/C=C/CC(C)C(O)[C@H](N[*:1])C(=O)[*:2]; Leu(ol) = CC(C)C[C@H](N)CO; Iva = CC[C@](C)(N)C(=O)O; Octanoyl = CCCCCCCC(=O)*; Aib = CC(C)(N)C(=O)O
Columns and labels:
Assay in all cases: NCI tumour cell line growth inhibition, 48 h
HS 578T breast = system: HS 578T breast
RPMI-8226 leukemia = system: RPMI-8226 leukemia
HOP-62 NSCLC = system: HOP-62 NSCLC
SN12C renal = system: SN12C renal
PC-3 prostate = system: PC-3 prostate
IGROV1 ovarian = system: IGROV1 ovarian
U251 CNS = system: U251 CNS
SNB-19 CNS = system: SNB-19 CNS
OVCAR-8 ovarian = system: OVCAR-8 ovarian
CCRF-CEM leukemia = system: CCRF-CEM leukemia
ACHN renal = system: ACHN renal
SR leukemia = system: SR leukemia
SF-268 CNS = system: SF-268 CNS
MOLT-4 leukemia = system: MOLT-4 leukemia
HOP-92 NSCLC = system: HOP-92 NSCLC
SNB-75 CNS = system: SNB-75 CNS
RXF 393 renal = system: RXF 393 renal
MCF7 breast = system: MCF7 breast
BT-549 breast = system: BT-549 breast
LOX IMVI melanoma = system: LOX IMVI melanoma
K-562 leukemia = system: K-562 leukemia
HL-60(TB) leukemia = system: HL-60(TB) leukemia
M14 melanoma = system: M14 melanoma
OVCAR-5 ovarian = system: OVCAR-5 ovarian
SF-539 CNS = system: SF-539 CNS
786-0 renal = system: 786-0 renal
SK-MEL-28 melanoma = system: SK-MEL-28 melanoma
A498 renal = system: A498 renal
T-47D breast = system: T-47D breast
OVCAR-4 ovarian = system: OVCAR-4 ovarian
NCI-H522 lung = system: NCI-H522 lung
DU-145 prostate = system: DU-145 prostate
NCI/ADR-RES ovarian = system: NCI/ADR-RES ovarian
UO-31 renal = system: UO-31 renal
COLO 205 colon = system: COLO 205 colon
NCI-H226 lung = system: NCI-H226 lung
UACC-257 melanoma = system: UACC-257 melanoma
HCT-15 colon = system: HCT-15 colon
A549 NSCLC = system: A549 NSCLC
EKVX NSCLC = system: EKVX NSCLC
SK-OV-3 ovarian = system: SK-OV-3 ovarian
HCC-2998 colon = system: HCC-2998 colon
MDA-MB-435 = system: MDA-MB-435
KM12 colon = system: KM12 colon
HT29 colon = system: HT29 colon
SK-MEL-2 melanoma = system: SK-MEL-2 melanoma
MDA-MB-231 breast = system: MDA-MB-231 breast
SW-620 colon = system: SW-620 colon
MALME-3M melanoma = system: MALME-3M melanoma
SF-295 CNS = system: SF-295 CNS
CAKI-1 renal = system: CAKI-1 renal
UACC-62 melanoma = system: UACC-62 melanoma
SK-MEL-5 melanoma = system: SK-MEL-5 melanoma
OVCAR-3 ovarian = system: OVCAR-3 ovarian
HCT-116 colon = system: HCT-116 colon
TK-10 renal = system: TK-10 renal
NCI-H460 lung = system: NCI-H460 lung

Q: What does the source list for `CNC(=O)c1c(NC(=O)c2cccc(C(F)(F)F)c2F)sc2c1CCC(=O)C2`?
A: GI50 (HS 578T breast): 0.379 µM; TGI (HS 578T breast): > 100 µM; GI50 (RPMI-8226 leukemia): 0.141 µM; TGI (RPMI-8226 leukemia): 0.676 µM; GI50 (HOP-62 NSCLC): 0.777 µM; TGI (HOP-62 NSCLC): > 100 µM; GI50 (SN12C renal): 0.305 µM; TGI (SN12C renal): > 100 µM; GI50 (PC-3 prostate): 0.11 µM; TGI (PC-3 prostate): > 100 µM; GI50 (IGROV1 ovarian): 0.483 µM; TGI (IGROV1 ovarian): > 100 µM; GI50 (U251 CNS): 0.259 µM; TGI (U251 CNS): > 100 µM; GI50 (SNB-19 CNS): 0.361 µM; TGI (SNB-19 CNS): > 100 µM; GI50 (OVCAR-8 ovarian): 0.349 µM; TGI (OVCAR-8 ovarian): > 100 µM; GI50 (CCRF-CEM leukemia): 0.109 µM; TGI (CCRF-CEM leukemia): > 100 µM; GI50 (ACHN renal): 0.301 µM; TGI (ACHN renal): 1.03 µM; GI50 (SR leukemia): 0.112 µM; TGI (SR leukemia): > 100 µM; GI50 (SF-268 CNS): 0.357 µM; TGI (SF-268 CNS): > 100 µM; GI50 (MOLT-4 leukemia): 0.341 µM; TGI (MOLT-4 leukemia): > 100 µM; GI50 (HOP-92 NSCLC): 0.208 µM; TGI (HOP-92 NSCLC): 0.636 µM; GI50 (SNB-75 CNS): 0.163 µM; TGI (SNB-75 CNS): 0.794 µM; GI50 (RXF 393 renal): 0.378 µM; TGI (RXF 393 renal): > 100 µM; GI50 (MCF7 breast): 0.283 µM; TGI (MCF7 breast): > 100 µM; GI50 (BT-549 breast): 0.406 µM; TGI (BT-549 breast): > 100 µM; GI50 (LOX IMVI melanoma): 0.466 µM; TGI (LOX IMVI melanoma): > 100 µM; GI50 (K-562 leukemia): 0.174 µM; TGI (K-562 leukemia): > 100 µM; GI50 (HL-60(TB) leukemia): 0.275 µM; TGI (HL-60(TB) leukemia): > 100 µM

Q: Which results are given for `C/C=C/CC(C)C(O)[C@H](NC(=O)[C@@H]1CCCN1C(=O)C(C)(C)NC(=O)CCCCCCC)C(=O)N[C@@](C)(CC)C(=O)N[C@@H](CCC(N)=O)C(=O)N[C@H](CCC(N)=O)C(=O)NC(C)(C)C(=O)NC(C)(C)C(=O)N[C@@H](CCC(N)=O)C(=O)N[C@H](CC(C)C)C(=O)N[C@H](CO)CC(C)C` (stereo partly drawn) (Octanoyl-[Aib]P[X11][Iva]Q[dQ][Aib][Aib]Q[dL][Leu(ol)])?
A: GI50 (HS 578T breast): 2.45 µM; TGI (HS 578T breast): 6.8 µM; GI50 (M14 melanoma): 2.66 µM; TGI (M14 melanoma): 7.2 µM; GI50 (OVCAR-5 ovarian): 5.64 µM; TGI (OVCAR-5 ovarian): 18.7 µM; GI50 (SF-539 CNS): 1.95 µM; TGI (SF-539 CNS): 4.14 µM; GI50 (786-0 renal): 2.71 µM; TGI (786-0 renal): 7.6 µM; GI50 (SK-MEL-28 melanoma): 1.81 µM; TGI (SK-MEL-28 melanoma): 3.38 µM; GI50 (A498 renal): 2.74 µM; TGI (A498 renal): 7.25 µM; GI50 (T-47D breast): 4.34 µM; TGI (T-47D breast): 20.3 µM; GI50 (OVCAR-4 ovarian): 10.4 µM; TGI (OVCAR-4 ovarian): 24.1 µM; GI50 (RPMI-8226 leukemia): 2.38 µM; TGI (RPMI-8226 leukemia): 5.28 µM; GI50 (NCI-H522 lung): 2.27 µM; TGI (NCI-H522 lung): 6.34 µM; GI50 (DU-145 prostate): 2.15 µM; TGI (DU-145 prostate): 4.61 µM; GI50 (NCI/ADR-RES ovarian): 8.82 µM; TGI (NCI/ADR-RES ovarian): 22.4 µM; GI50 (UO-31 renal): 3.1 µM; TGI (UO-31 renal): 14.9 µM; GI50 (COLO 205 colon): 2.03 µM; TGI (COLO 205 colon): 4.04 µM; GI50 (NCI-H226 lung): 2.25 µM; TGI (NCI-H226 lung): 5.92 µM; GI50 (UACC-257 melanoma): 1.8 µM; TGI (UACC-257 melanoma): 3.75 µM; GI50 (HOP-62 NSCLC): 3.16 µM; TGI (HOP-62 NSCLC): 11.2 µM; GI50 (HCT-15 colon): 5.2 µM; TGI (HCT-15 colon): 18.2 µM; GI50 (A549 NSCLC): 5.12 µM; TGI (A549 NSCLC): 21 µM; GI50 (EKVX NSCLC): 2.83 µM; TGI (EKVX NSCLC): 9.74 µM; GI50 (SN12C renal): 3.12 µM; TGI (SN12C renal): 11.6 µM; GI50 (PC-3 prostate): 2.34 µM; TGI (PC-3 prostate): 6.75 µM; GI50 (IGROV1 ovarian): 6.83 µM; TGI (IGROV1 ovarian): 20.3 µM; GI50 (SK-OV-3 ovarian): 10.7 µM; TGI (SK-OV-3 ovarian): 23.9 µM; GI50 (HCC-2998 colon): 3 µM; TGI (HCC-2998 colon): 10.1 µM; GI50 (U251 CNS): 1.74 µM; TGI (U251 CNS): 3.2 µM; GI50 (SNB-19 CNS): 3.95 µM; TGI (SNB-19 CNS): 14.6 µM; GI50 (OVCAR-8 ovarian): 3.16 µM; TGI (OVCAR-8 ovarian): 12.3 µM; GI50 (MDA-MB-435): 1.93 µM; TGI (MDA-MB-435): 3.83 µM; GI50 (CCRF-CEM leukemia): 2.35 µM; TGI (CCRF-CEM leukemia): 5.63 µM; GI50 (KM12 colon): 2.16 µM; TGI (KM12 colon): 4.77 µM; GI50 (HT29 colon): 7.35 µM; TGI (HT29 colon): 20.6 µM; GI50 (ACHN renal): 7.45 µM; TGI (ACHN renal): 19.9 µM; GI50 (SR leukemia): 1.79 µM; TGI (SR leukemia): 3.64 µM; GI50 (SF-268 CNS): 2.96 µM; TGI (SF-268 CNS): 10.2 µM; GI50 (MOLT-4 leukemia): 2.43 µM; TGI (MOLT-4 leukemia): 5.62 µM; GI50 (SK-MEL-2 melanoma): 6.7 µM; TGI (SK-MEL-2 melanoma): 19.4 µM; GI50 (SNB-75 CNS): 1.42 µM; TGI (SNB-75 CNS): 3.24 µM; GI50 (RXF 393 renal): 1.79 µM; TGI (RXF 393 renal): 3.37 µM; GI50 (MDA-MB-231 breast): 3.16 µM; TGI (MDA-MB-231 breast): 10.1 µM; GI50 (SW-620 colon): 6.91 µM; TGI (SW-620 colon): 20.2 µM; GI50 (MCF7 breast): 2.95 µM; TGI (MCF7 breast): 10.7 µM; GI50 (BT-549 breast): 2.01 µM; TGI (BT-549 breast): 3.63 µM; GI50 (MALME-3M melanoma): 1.96 µM; TGI (MALME-3M melanoma): 4.68 µM; GI50 (SF-295 CNS): 2.27 µM; TGI (SF-295 CNS): 5.61 µM; GI50 (CAKI-1 renal): 4.89 µM; TGI (CAKI-1 renal): 18.4 µM; GI50 (UACC-62 melanoma): 3.02 µM; TGI (UACC-62 melanoma): 11.2 µM; GI50 (LOX IMVI melanoma): 3.56 µM; TGI (LOX IMVI melanoma): 13.6 µM; GI50 (K-562 leukemia): 1.85 µM; TGI (K-562 leukemia): 3.52 µM; GI50 (SK-MEL-5 melanoma): 1.85 µM; TGI (SK-MEL-5 melanoma): 3.52 µM; GI50 (HL-60(TB) leukemia): 1.74 µM; TGI (HL-60(TB) leukemia): 3.86 µM; GI50 (OVCAR-3 ovarian): 10.6 µM; TGI (OVCAR-3 ovarian): 24 µM; GI50 (HCT-116 colon): 4.11 µM; TGI (HCT-116 colon): 16 µM; GI50 (TK-10 renal): 4.54 µM; TGI (TK-10 renal): 15 µM; GI50 (NCI-H460 lung): 3.89 µM; TGI (NCI-H460 lung): 13.1 µM

From PubChem BioAssay (NCI)
